From US10669283B2, “Compound and pharmacologically acceptable salt thereof” (MEIJI SEIKA PHARMA CO., LTD., priority 2016, dated 2020)

test system: PDE4; experiment: PDE4 inhibition, scintillation proximity assay (SPA); type: biochemical; settings: scintillation proximity assay (SPA); evaluated as classes A, B, C; read-out: PDE4 Inhibitory Activity (concentration for the inhibition rate of 50%);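 on PDE4 Inhibitory Activity (concentration for the inhibition rate of 50%): A below 100 nM B 100 to below 1000 nM C 1000 nM or more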
Experimental: The PDE4 inhibitory activity was measured using scintillation proximity assay (SPA) as follows. A sample compound dissolved in dimethyl sulfoxide was diluted 1:10 in reaction buffer solution which contained 50 mM of Tris-HCl with pH 7.4, 8.3 mM of MgCl2, 1.7 mM of EGTA, and 3 mg/mL of bovine serum albumin (BSA). Then, 10 μL of the diluted solution was added in a 96-well assay plate. Moreover, 50 μL of PDE4 diluted 1:375 in the reaction buffer solution was added, and then 40 μL of [2,8-^3H]-adenosine-3′,5′-cyclic phosphate triethylammonium salt diluted 1:1000 in the reaction buffer solution was added. The mixture was allowed to stand at room temperature for 120 minutes. Thereafter, […] of RNA binding YSi-SPA beads suspension containing ZnSO4 was added and the mixture was allowed to stand at room temperature for 15 minutes, followed by adsorption of the enzyme reaction product to the beads. After that, the radioactivity was measured using a liquid scintillation counter for a 96-well plate. The mixture without the enzyme preparation added but only the reaction buffer solution added is a blank, and the mixture with the enzyme preparation added and only dimethyl sulfoxide added instead of the sample solution is a control.

| Compound | IC50 |
| --- | --- |
| O=C(O)COC(c1ccc(-c2nccs2)c2oc(N3CC4CC(C3)N4)nc12)C(F)(F)F (stereo not shown) [Example 253, 2-(1-(2-(3,6-Diazabicyclo[3.1.1]heptan-3-yl)-7-(thiazol-2-yl)benzo[d]oxazol-4-yl)-2,2,2-trifluoroethoxy)acetic acid] | < 100 nM |
| OCC(F)(F)OC(c1ccc(-c2nccs2)c2oc(N3CC4CC(C3)N4)nc12)C(F)(F)F (stereo not shown) [Example 258, 2-(1-(2-(3,6-Diazabicyclo[3.1.1]heptan-3-yl)-7-(thiazol-2-yl)benzo[d]oxazol-4-yl)-2,2,2-trifluoroethoxy)-2,2-difluoroethan-1-ol] | < 100 nM |
| OC(c1ccc(-c2nccs2)c2oc(N3CC4CC(C3)N4)nc12)C(F)(F)F (stereo not shown) [Example 120, 1-(2-(3,6-Diazabicyclo[3.1.1]heptan-3-yl)-7-(thiazol-2-yl)benzo[d]oxazol-4-yl)-2,2,2-trifluoroethan-1-ol] | < 100 nM |
| CCOC(=O)c1ccc(-c2nccs2)c2oc(N3CC4CC(C3)N4)nc12 [Example 113, Ethyl 2-(3,6-diazabicyclo[3.1.1]heptan-3-yl)-7-(thiazol-2-yl)benzo[d]oxazole-4-carboxylate] | < 100 nM |
| CC(C)Oc1cc(-c2nccs2)c2oc(N3CC4CCC(C3)N4)nc2c1 [Example 68, 2-(3,8-Diazabicyclo[3.2.1]octan-3-yl)-5-isopropoxy-7-(thiazol-2-yl)benzo[d]oxazole] | < 100 nM |
| Oc1ccc(-c2nccs2)c2oc(N3CC4CCCC(C3)N4)nc12 [Example 80, 2-(3,9-Diazabicyclo[3.3.1]nonan-3-yl)-7-(thiazol-2-yl) benzo[d]oxazol-4-ol] | < 100 nM |
| CC(O)C(F)(F)Oc1ccc(-c2cscn2)c2oc(N3CC4CC(C3)N4)nc12 (stereo not shown) [Example 309, 1-((2-(3,6-Diazabicyclo[3.1.1]heptan-3-yl)-7-(thiazol-4-yl)benzo[d]oxazol-4-yl)oxy)-1,1-difluoropropan-2-ol] | < 100 nM |
| CCOC(=O)c1cc(-n2cccn2)c2oc(N3CC4CC(C3)N4)nc2c1 [Example 91, Ethyl 2-(3,6-diazabicyclo[3.1.1]heptan-3-yl)-7-(1H-pyrazol-1-yl)benzo[d]oxazole-5-carboxylate] | > 1000 nM |
| CC(=O)c1cc(-c2nccs2)c2oc(N3CC4CC(C3)N4)nc2c1OC(F)(F)F [Example 212, 1-(2-(3,6-Diazabicyclo[3.1.1]heptan-3-yl)-7-(thiazol-2-yl)-4-(trifluoromethoxy)benzo[d]oxazol-5-yl)ethan-1-one] | < 100 nM |
| FC(F)(F)COC(c1cc(-c2nccs2)c2oc(N3CC4CC(C3)N4)nc2c1)C(F)(F)F (stereo not shown) [Example 151, 2-(3,6-Diazabicyclo[3.1.1]heptan-3-yl)-7-(thiazol-2-yl)-5-(2,2,2-trifluoro-1-(2,2,2-trifluoroethoxy)ethyl)benzo[d]oxazole] | < 100 nM |
| CCOC(=O)c1cc(-n2cccn2)c2oc(N3CC4COCC(C3)N4)nc2c1 [Example 92, Ethyl 2-(3-oxa-7,9-diazabicyclo[3.3.1]nonan-7-yl)-7-(1H-pyrazol-1-yl)benzo[d]oxazole-5-carboxylate] | > 1000 nM |
| OC(COc1ccc(-c2nccs2)c2oc(N3CC4CC(C3)N4)nc12)C(F)(F)F (stereo not shown) [Example 277, 3-((2-(3,6-Diazabicyclo[3.1.1]heptan-3-yl)-7-(thiazol-2-yl)benzo[d]oxazol-4-yl)oxy)-1,1,1-trifluoropropan-2-ol] | < 100 nM |
| CC(C)(O)C(F)(F)OC(c1ccc(-c2nccs2)c2oc(N3CC4CC(C3)N4)nc12)C(F)(F)F (stereo not shown) [Example 257, 1-(1-(2-(3,6-Diazabicyclo[3.1.1]heptan-3-yl)-7-(thiazol-2-yl)benzo[d]oxazol-4-yl)-2,2,2-trifluoroethoxy)-1,1-difluoro-2-methylpropan-2-ol] | < 100 nM |
| Clc1ccc(-c2nccs2)c2oc(N3CC4CCCC(C3)N4)nc12 [Example 38, 2-(3,9-Diazabicyclo[3.3.1]nonan-3-yl)-4-chloro-7-(thiazol-2-yl)benzo[d]oxazole] | < 100 nM |
| COC(C)(C)c1cc(-c2nccs2)c2oc(N3CC4CC(C3)N4)nc2c1 [Example 174, 2-(3,6-Diazabicyclo[3.1.1]heptan-3-yl)-5-(2-methoxypropan-2-yl)-7-(thiazol-2-yl)benzo[d]oxazole] | < 100 nM |
| Oc1ccc(-c2nccs2)c2oc(N3CC4CC(C3)N4)nc12 [Example 79, 2-(3,6-Diazabicyclo[3.1.1]heptan-3-yl)-7-(thiazol-2-yl)benzo[d]oxazol-4-ol] | < 100 nM |
| COC(C)(c1cc(-c2nccs2)c2oc(N3CC4CCC(C3)N4)nc2c1)C(F)(F)F (stereo not shown) [Example 102, 2-(3,8-Diazabicyclo[3.2.1]octan-3-yl)-7-(thiazol-2-yl)-5-(1,1,1-trifluoro-2-methoxypropan-2-yl)benzo[d]oxazole] | < 100 nM |

| Compound | IC50 |
| --- | --- |
| COC(C)c1cc(-c2nccs2)c2oc(N3CC4CCC(C3)N4)nc2c1C(F)(F)F (stereo not shown) [Example 184, 2-(3,8-Diazabicyclo[3.2.1]octan-3-yl)-5-(1-methoxyethyl)-7-(thiazol-2-yl)-4-(trifluoromethyl)benzo[d]oxazole] | < 100 nM |
| COC(C)c1ccc(-c2nccs2)c2oc(N3CC4CCCC(C3)N4)nc12 (stereo not shown) [Example 243, 2-(3,9-Diazabicyclo[3.3.1]nonan-3-yl)-4-(1-methoxyethyl)-7-(thiazol-2-yl)benzo[d]oxazole] | < 100 nM |
| NS(=O)(=O)c1cc(-c2nccs2)c2oc(N3CC4CCC(C3)N4)nc2c1 [Example 57, 2-(3,8-Diazabicyclo[3.2.1]octan-3-yl)-7-(thiazol-2-yl) benzo[d]oxazole-5-sulfonamide] | < 100 nM |
| COCCOc1cc(-c2nccs2)c2oc(N3CC4CCC(C3)N4)nc2c1 [Example 69, 2-(3,8-Diazabicyclo[3.2.1]octan-3-yl)-5-(2-methoxyethoxy)-7-(thiazol-2-yl)benzo[d]oxazole] | < 100 nM |
| CC(C)(O)C(Oc1ccc(-c2nccs2)c2oc(N3CC4CC(C3)N4)nc12)C(F)(F)F (stereo not shown) [Example 313, 3-((2-(3,6-Diazabicyclo[3.1.1]heptan-3-yl)-7-(thiazol-2-yl)benzo[d]oxazol-4-yl)oxy)-4,4,4-trifluoro-2-methylbutan-2-ol] | < 100 nM |
| FC(F)(F)c1c(Cl)cc(-n2cccn2)c2oc(N3CC4COCC(C3)N4)nc12 [Example 18, 7-(5-Chloro-7-(1H-pyrazol-1-yl)-4-(trifluoromethyl)benzo[d]oxazol-2-yl)-3-oxa-7,9-diazabicyclo[3.3.1]nonane] | 100 to 1000 nM |
| CSc1cc(-c2nccs2)c2oc(N3CC4CCCC(C3)N4)nc2c1 [Example 41, 2-(3,9-Diazabicyclo[3.3.1]nonan-3-yl)-5-(methylthio)-7-(thiazol-2-yl)benzo[d]oxazole] | < 100 nM |
| FC(F)(F)Oc1cc(-c2nccs2)c2oc(N3CC4CCCC(C3)N4)nc2c1 [Example 55, 2-(3,9-Diazabicyclo[3.3.1]nonan-3-yl)-7-(thiazol-2-yl)-5-(trifluoromethoxy)benzo[d]oxazole] | < 100 nM |
| FC(F)(F)c1ccc(-c2nccs2)c2oc(N3CC4CCC(C3)N4)nc12 [Example 31, 2-(3,8-Diazabicyclo[3.2.1]octan-3-yl)-7-(thiazol-2-yl)-4-(trifluoromethyl)benzo[d]oxazole] | < 100 nM |
| FC(F)Oc1ccc(-c2nccs2)c2oc(N3CC4CCC(C3)N4)nc12 [Example 263, 2-(3,8-Diazabicyclo[3.2.1]octan-3-yl)-4-(difluoromethoxy)-7-(thiazol-2-yl)benzo[d]oxazole] | < 100 nM |
| CCOC(=O)c1cc(-c2nccs2)c2oc(N3CC4CC(C3)N4)nc2c1C(F)(F)F [Example 165, Ethyl 2-(3,6-diazabicyclo[3.1.1]heptan-3-yl)-7-(thiazol-2-yl)-4-(trifluoromethyl)benzo[d]oxazole-5-carboxylate] | < 100 nM |
| CC(O)(c1ccc(-c2nccs2)c2oc(N3CC4CCC(C3)N4)nc12)C(F)(F)F (stereo not shown) [Example 236, 2-(2-(3,8-Diazabicyclo[3.2.1]octan-3-yl)-7-(thiazol-2-yl)benzo[d]oxazol-4-yl)-1,1,1-trifluoropropan-2-ol] | < 100 nM |
| OC1(COC(c2ccc(-c3cscn3)c3oc(N4CC5CC(C4)N5)nc23)C(F)(F)F)CC1 (stereo not shown) [Example 286, 1-((1-(2-(3,6-Diazabicyclo[3.1.1]heptan-3-yl)-7-(thiazol-4-yl)benzo[d]oxazol-4-yl)-2,2,2-trifluoroethoxy)methyl)cyclopropan-1-ol] | < 100 nM |
| OC(O)(c1cc(-c2nccs2)c2oc(N3CC4CCC(C3)N4)nc2c1)C(F)(F)F [Example 157, 1-(2-(3,8-Diazabicyclo[3.2.1]octan-3-yl)-7-(thiazol-2-yl)benzo[d]oxazol-5-yl)-2,2,2-trifluoroethane-1,1-diol] | < 100 nM |
| CC(=O)c1cc(-c2nccs2)c2oc(N3CC4CC(C3)N4)nc2c1C(F)(F)F [Example 180, 1-(2-(3,6-Diazabicyclo[3.1.1]heptan-3-yl)-7-(thiazol-2-yl)-4-(trifluoromethyl)benzo[d]oxazol-5-yl)ethan-1-one] | < 100 nM |
| OC(c1cc(-c2cscn2)c2oc(N3CC4CCC(C3)N4)nc2c1OC(F)(F)F)C(F)F (stereo not shown) [Example 303, 1-(2-(3,8-Diazabicyclo[3.2.1]octan-3-yl)-7-(thiazol-4-yl)-4-(trifluoromethoxy)benzo[d]oxazol-5-yl)-2,2-difluoroethan-1-ol] | < 100 nM |

same assay, conditions: scintillation proximity assay; class symbols; read-out: PDE4 Inhibitory Activity

| Compound | IC50 |
| --- | --- |
| c1csc(-c2ccc(C3CC3)c3nc(N4CC5CC(C4)N5)oc23)n1 [Example 344, 2-(3,6-diazabicyclo [3.1.1]heptan-3-yl)-4-cyclopropyl-7-(thiazol-2-yl)benzo[d] oxazole] | < 100 nM |
